Reference: US12077503B2, “Substituted cyclic amides and their use as herbicides” (FMC CORPORATION, priority 2015, dated 2024)

What was measured:
Format in all cases: in vivo
Kochia (Kochia scoparia) [1] = assay: Test A preemergence; conditions: for Plant response rating, Kochia: 125 g ai/ha; for Kochia plant response rating (0 to 100 scale): 0 is no effect, 100 is complete control
Source text: (§1) Seeds of plant species selected from barnyardgrass (Echinochloa crus-galli), Kochia (Kochia scoparia), ragweed (common ragweed, Ambrosia elatior), ryegrass, Italian (Italian ryegrass, Lolium multiflorum), crabgrass, large (Digitaria sanguinalis), giant foxtail (Setaria faberii), green foxtail (Setaria viridis), morningglory (Ipomoea spp.), pigweed (Amaranthus retroflexus), velvetleaf (Abutilon theophrasti), wheat (Triticum aestivum), and corn (Zea mays) were planted into a blend of loam soil and sand and treated preemergence with a directed soil spray using test chemicals formulated in anon-phytotoxic solvent mixture which included a surfactant.
(§2) At the same time, plants selected from these crop and weed species and also blackgrass (Alopecurus myosuroides), and Galium (catchweed bedstraw, Galium aparine) were planted in pots containing the same blend of loam soil and sand and treated with postemergence applications of test chemicals formulated in the same manner. Plants ranged in height from 2 to 10 cm and were in the one- to two-leaf stage for the postemergence treatment. Treated plants and untreated controls were maintained in a greenhouse for approximately 10 d, after which time all treated plants were compared to untreated controls and visually evaluated for injury. Plant response ratings, summarized in Table A, are based on a 0 to 100 scale where 0 is no effect and 100 is complete control. A dash (-) response means no test result.

[2] = system: barnyardgrass (Echinochloa crus-galli); assay: Test A preemergence; conditions: for Plant response rating, Barnyardgrass: 125 g ai/ha; for Barnyardgrass plant response rating (0 to 100 scale): 0 is no effect, 100 is complete control
Source text: as §1, §2

[3] = system: giant foxtail (Setaria faberii); assay: Test A preemergence; conditions: for Plant response rating, Foxtail, Giant: 125 g ai/ha; for Foxtail, Giant plant response rating (0 to 100 scale): 0 is no effect, 100 is complete control
Source text: as §1, §2

[4] = system: pigweed (Amaranthus retroflexus); assay: Test A preemergence; conditions: for Plant response rating, Pigweed: 125 g ai/ha; for Pigweed plant response rating (0 to 100 scale): 0 is no effect, 100 is complete control
Source text: as §1, §2

[5] = system: ragweed (common ragweed, Ambrosia elatior); assay: Test A preemergence; conditions: for Plant response rating, Ragweed: 125 g ai/ha; for Ragweed plant response rating (0 to 100 scale): 0 is no effect, 100 is complete control
Source text: as §1, §2

[6] = system: ryegrass, Italian (Italian ryegrass, Lolium multiflorum); assay: Test A preemergence; conditions: for Plant response rating, Ryegrass, Italian: 125 g ai/ha; for Ryegrass, Italian plant response rating (0 to 100 scale): 0 is no effect, 100 is complete control
Source text: as §1, §2

[7] = system: Galium (catchweed bedstraw, Galium aparine); assay: Test A postemergence
Source text: as §1, §2

Kochia (Kochia scoparia) [8] = assay: Test A postemergence
Source text: as §1, §2

[9] = system: barnyardgrass (Echinochloa crus-galli); assay: Test A postemergence
Source text: as §1, §2

[10] = system: blackgrass (Alopecurus myosuroides); assay: Test A postemergence
Source text: as §1, §2

corn (Zea mays) = assay: Test A postemergence
Source text: as §1, §2

[11] = system: giant foxtail (Setaria faberii); assay: Test A postemergence
Source text: as §1, §2

[12] = system: pigweed (Amaranthus retroflexus); assay: Test A postemergence
Source text: as §1, §2

[13] = system: ragweed (common ragweed, Ambrosia elatior); assay: Test A postemergence
Source text: as §1, §2

[14] = system: ryegrass, Italian (Italian ryegrass, Lolium multiflorum); assay: Test A postemergence
Source text: as §1, §2

[15] = system: wheat (Triticum aestivum); assay: Test A postemergence
Source text: as §1, §2

[16] = system: barnyardgrass (Echinochloa crus-galli); assay: Test B flooded paddy test; conditions: Flood, 250 g ai/ha; 0 to 100 scale where 0 is no effect and 100 is complete control; 13 to 15 d
Description: (§3) Plant species in the flooded paddy test selected from rice (Oryra sativa), sedge, umbrella (small-flower umbrella sedge, Cyperus difformis), ducksalad (Heteranthera limosa), and barnyardgrass (Echinochloa crus-galli) were grown to the 2-leaf stage for testing. At time of treatment, test pots were flooded to 3 cm above the soil surface, treated by application of test compounds directly to the paddy water, and then maintained at that water depth for the duration of the test. Treated plants and controls were maintained in a greenhouse for 13 to 15 d, after which time all species were compared to controls and visually evaluated. Plant response ratings, summarized in Table B, are based on a scale of 0 to 100 where 0 is no effect and 100 is complete control. A dash (-) response means no test result.

[17] = system: ducksalad (Heteranthera limosa); assay: Test B flooded paddy test; conditions: Flood, 250 g ai/ha; 0 to 100 scale where 0 is no effect and 100 is complete control; 13 to 15 d
Description: as §3

rice (Oryra sativa) = assay: Test B flooded paddy test; conditions: Flood, 250 g ai/ha; 0 to 100 scale where 0 is no effect and 100 is complete control; 13 to 15 d
Description: as §3

[18] = system: sedge, umbrella (small-flower umbrella sedge, Cyperus difformis); assay: Test B flooded paddy test; conditions: Flood, 250 g ai/ha; 0 to 100 scale where 0 is no effect and 100 is complete control; 13 to 15 d
Description: as §3

[19] = preemergence, 0 to 100 scale (0 no effect, 100 complete control)
[20] = 500 g ai/ha, postemergence, 0 to 100 scale, 0 no effect, 100 complete control
[21] = Postemergence, 125 g ai/ha, visual injury, 0 to 100 scale (0 no effect, 100 complete control), approx. 10 d
[22] = Preemergence, visual injury after approximately 10 d, 0 to 100 scale where 0 is no effect and 100 is complete control
[23] = Preemergence, 500 g ai/ha, visual injury approx. 10 d
[24] = 125 g ai/ha, postemergence, visual injury rating on 0 to 100 scale (0 no effect, 100 complete control), approx. 10 d
[25] = Postemergence, 500 g ai/ha, 0 to 100 scale where 0 is no effect and 100 is complete control

O=C1NCC(c2ccccc2-c2ccccc2)C1C(=O)Nc1ccccc1F (racemic) [Compound 381]
20: Barnyardgrass plant response rating (0 to 100 scale) ([2]; Preemergence, 500 g ai/ha) | Plant response rating, Foxtail, Giant [11, 20]
30: Foxtail, Giant plant response rating (0 to 100 scale) ([3]; Preemergence, 500 g ai/ha) | Plant response rating, Barnyardgrass [9, 20]
0: Plant response rating, Kochia (Kochia (Kochia scoparia) [1]; [19]) | Kochia plant response rating (0 to 100 scale) (Kochia (Kochia scoparia) [1]; Preemergence, 500 g ai/ha) | Plant response rating, Barnyardgrass [2, 19] | Plant response rating, Foxtail, Giant [3, 19] | Plant response rating, Pigweed [4, 19] | Pigweed plant response rating (0 to 100 scale) ([4]; Preemergence, 500 g ai/ha) | Plant response rating, Ragweed [5, 19] | Ragweed plant response rating (0 to 100 scale) ([5]; Preemergence, 500 g ai/ha) | Plant response rating, Ryegrass, Italian [6, 19] | Ryegrass, Italian plant response rating (0 to 100 scale) ([6]; Preemergence, 500 g ai/ha) | Plant response rating, Galium [7, 20] | Plant response rating, Galium [7, 21] | Plant response rating, Kochia (Kochia (Kochia scoparia) [8]; [20]) | Plant response rating, Kochia (Kochia (Kochia scoparia) [8]; [21]) | Plant response rating, Barnyardgrass [9, 21] | Plant response rating, Blackgrass [10, 20] | Plant response rating, Blackgrass [10, 21] | Plant response rating, Corn (corn (Zea mays); [20]) | Plant response rating, Corn (corn (Zea mays); [21]) | Plant response rating, Foxtail, Giant [11, 21] | Plant response rating, Pigweed [12, 20] | Plant response rating, Pigweed [12, 21] | Plant response rating, Ragweed [13, 20] | Plant response rating, Ragweed [13, 21] | Plant response rating, Ryegrass, Italian [14, 20] | Plant response rating, Ryegrass, Italian [14, 21] | Plant response rating, Wheat [15, 20] | Plant response rating, Wheat [15, 21] | Plant response rating, Barnyardgrass [16] | Plant response rating, Ducksalad [17] | Plant response rating, Rice (rice (Oryra sativa)) | Plant response rating, Sedge, Umbrella [18]

O=C1NCC(c2ccccc2-c2ccccc2)C1C(=O)Nc1ccc(F)c(F)c1F (racemic) [Compound 382]
30: Foxtail, Giant plant response rating (0 to 100 scale) ([3]; Preemergence, 500 g ai/ha)
0: Plant response rating, Kochia (Kochia (Kochia scoparia) [1]; [19]) | Kochia plant response rating (0 to 100 scale) (Kochia (Kochia scoparia) [1]; Preemergence, 500 g ai/ha) | Plant response rating, Barnyardgrass [2, 19] | Plant response rating, Foxtail, Giant [3, 19] | Plant response rating, Pigweed [4, 19] | Pigweed plant response rating (0 to 100 scale) ([4]; Preemergence, 500 g ai/ha) | Plant response rating, Ragweed [5, 19] | Ragweed plant response rating (0 to 100 scale) ([5]; Preemergence, 500 g ai/ha) | Plant response rating, Ryegrass, Italian [6, 19] | Ryegrass, Italian plant response rating (0 to 100 scale) ([6]; Preemergence, 500 g ai/ha) | Plant response rating, Galium [7, 20] | Plant response rating, Galium [7, 21] | Plant response rating, Kochia (Kochia (Kochia scoparia) [8]; [20]) | Plant response rating, Kochia (Kochia (Kochia scoparia) [8]; [21]) | Plant response rating, Barnyardgrass [9, 21] | Plant response rating, Blackgrass [10, 20] | Plant response rating, Blackgrass [10, 21] | Plant response rating, Corn (corn (Zea mays); [20]) | Plant response rating, Corn (corn (Zea mays); [21]) | Plant response rating, Foxtail, Giant [11, 21] | Plant response rating, Pigweed [12, 20] | Plant response rating, Pigweed [12, 21] | Plant response rating, Ragweed [13, 20] | Plant response rating, Ragweed [13, 21] | Plant response rating, Ryegrass, Italian [14, 20] | Plant response rating, Ryegrass, Italian [14, 21] | Plant response rating, Wheat [15, 20] | Plant response rating, Wheat [15, 21] | Plant response rating, Barnyardgrass [16] | Plant response rating, Ducksalad [17] | Plant response rating, Rice (rice (Oryra sativa)) | Plant response rating, Sedge, Umbrella [18]
50: Barnyardgrass plant response rating (0 to 100 scale) ([2]; Preemergence, 500 g ai/ha)
20: Plant response rating, Barnyardgrass [9, 20] | Plant response rating, Foxtail, Giant [11, 20]

CC(C)c1ccc(C2CNC(=O)C2C(=O)Nc2ccccc2S(C)(=O)=O)cc1 (racemic) [Compound 500]
40: Barnyardgrass plant response rating (0 to 100 scale, 0 is no effect, 100 is complete control) [2, 23] | Plant response rating, Ragweed [13, 25]
80: Plant response rating, Foxtail, Giant [3, 22]
50: Plant response rating, Kochia (Kochia (Kochia scoparia) [1]; [22]) | Kochia plant response rating (0 to 100 scale, 0 is no effect, 100 is complete control) (Kochia (Kochia scoparia) [1]; [23]) | Plant response rating, Barnyardgrass [9, 25] | Plant response rating, Foxtail, Giant [11, 25]
65: Plant response rating, Ducksalad [17]
20: Pigweed plant response rating (0 to 100 scale, 0 is no effect, 100 is complete control) [4, 23] | Plant response rating, Kochia (Kochia (Kochia scoparia) [8]; [25]) | Plant response rating, Corn (corn (Zea mays); [25]) | Plant response rating, Wheat [15, 25]
0: Plant response rating, Barnyardgrass [2, 22] | Plant response rating, Pigweed [4, 22] | Plant response rating, Ragweed [5, 22] | Ragweed plant response rating (0 to 100 scale, 0 is no effect, 100 is complete control) [5, 23] | Plant response rating, Ryegrass, Italian [6, 22] | Ryegrass, Italian plant response rating (0 to 100 scale, 0 is no effect, 100 is complete control) [6, 23] | Galium plant response rating [7, 24] | Plant response rating, Galium [7, 25] | Kochia plant response rating (Kochia (Kochia scoparia) [8]; [24]) | Barnyardgrass plant response rating [9, 24] | Blackgrass plant response rating [10, 24] | Plant response rating, Blackgrass [10, 25] | Corn plant response rating (corn (Zea mays); [24]) | Foxtail, Giant plant response rating [11, 24] | Pigweed plant response rating [12, 24] | Plant response rating, Pigweed [12, 25] | Ragweed plant response rating [13, 24] | Ryegrass, Italian plant response rating [14, 24] | Plant response rating, Ryegrass, Italian [14, 25] | Wheat plant response rating [15, 24] | Plant response rating, Barnyardgrass [16] | Plant response rating, Rice (rice (Oryra sativa)) | Plant response rating, Sedge, Umbrella [18]
90: Foxtail, Giant plant response rating (0 to 100 scale, 0 is no effect, 100 is complete control) [3, 23]
